In the NIST ThermoML archive (doi:10.1016/j.jct.2005.05.007):

Key:
[1] = refractive index (Na D-line) (dimensionless); conditions: 298.15 K; 101.33 kPa; Liquid; Standard Abbe refractometry
[2] = 298.15 K; 101.33 kPa; Liquid; Vibrating tube method
[3] = xn = mol fraction of the nth substance listed; conditions: 298.15 K, 101 kPa, Liquid, Vibrating tube method

CCCCO [butan-1-ol]
Conditions | mass density [kg/m3] | refractive index
[1] | – | 1.397
[2] | 805.8 | –

CCO [ethanol]
Conditions | mass density [kg/m3] | refractive index
[1] | – | 1.3593
[2] | 785.1 | –

CO [methanol]
Conditions | mass density [kg/m3] | refractive index
[1] | – | 1.3265
[2] | 786.6 | –

CCCCCO [pentan-1-ol]
Conditions | mass density [kg/m3] | refractive index
[1] | – | 1.4078
[2] | 810.8 | –

CCCO [propan-1-ol]
Conditions | mass density [kg/m3] | refractive index
[1] | – | 1.3834
[2] | 799.6 | –

CC(C)O [propan-2-ol]
Conditions | mass density [kg/m3] | refractive index
[1] | – | 1.3748
[2] | 780.9 | –

CCC#N [propanenitrile]
Conditions | mass density [kg/m3] | refractive index
[1] | – | 1.3633
[2] | 776.8 | –

CCC#N [propanenitrile] + CC(C)O
[3]
Conditions | mass density [kg/m3]
x2 = 0.0579 | 776.1
x2 = 0.0955 | 775.8
x2 = 0.1396 | 775.5
x2 = 0.183 | 775.4
x2 = 0.2321 | 775.3
x2 = 0.2775 | 775.4
x2 = 0.3274 | 775.5
x2 = 0.3784 | 775.6
x2 = 0.4249 | 775.8
x2 = 0.4768 | 776
x2 = 0.5385 | 776.4
x2 = 0.5752 | 776.6
x2 = 0.6307 | 777
x2 = 0.6763 | 777.4
x2 = 0.7286 | 777.9
x2 = 0.7788 | 778.4
x2 = 0.8384 | 779.1
x2 = 0.8929 | 779.7
x2 = 0.9416 | 780.2

CCC#N [propanenitrile] + CCCCCO
[3]
Conditions | mass density [kg/m3]
x2 = 0.0353 | 778.3
x2 = 0.0649 | 779.6
x2 = 0.1026 | 781.1
x2 = 0.1379 | 782.6
x2 = 0.1786 | 784.2
x2 = 0.2164 | 785.7
x2 = 0.2613 | 787.5
x2 = 0.3031 | 789.1
x2 = 0.3464 | 790.7
x2 = 0.3917 | 792.4
x2 = 0.4396 | 794.1
x2 = 0.489 | 795.8
x2 = 0.5444 | 797.7
x2 = 0.6012 | 799.5
x2 = 0.6547 | 801.2
x2 = 0.7186 | 803.2
x2 = 0.7788 | 804.9
x2 = 0.8488 | 806.9
x2 = 0.9162 | 808.7

CCC#N [propanenitrile] + CCCCO
[3]
Conditions | mass density [kg/m3]
x2 = 0.0391 | 778
x2 = 0.1177 | 780.4
x2 = 0.1625 | 781.8
x2 = 0.1984 | 782.9
x2 = 0.2481 | 784.4
x2 = 0.3398 | 787.4
x2 = 0.385 | 788.7
x2 = 0.4364 | 790.2
x2 = 0.4813 | 791.6
x2 = 0.539 | 793.3
x2 = 0.5821 | 794.6
x2 = 0.6363 | 796.2
x2 = 0.7036 | 798.1
x2 = 0.7441 | 799.2
x2 = 0.8103 | 801
x2 = 0.8795 | 802.8
x2 = 0.9334 | 804.1

CCC#N [propanenitrile] + CCCO
[3]
Conditions | mass density [kg/m3]
x2 = 0.0465 | 777.6
x2 = 0.0955 | 778.5
x2 = 0.143 | 779.4
x2 = 0.1882 | 780.3
x2 = 0.2387 | 781.4
x2 = 0.2837 | 782.4
x2 = 0.3347 | 783.6
x2 = 0.3775 | 784.6
x2 = 0.4341 | 786
x2 = 0.4827 | 787.2
x2 = 0.5841 | 789.7
x2 = 0.6371 | 791
x2 = 0.7389 | 793.5
x2 = 0.7795 | 794.5
x2 = 0.8329 | 795.8
x2 = 0.8919 | 797.2
x2 = 0.9355 | 798.2

CCC#N [propanenitrile] + CCO
[3]
Conditions | mass density [kg/m3]
x2 = 0.0627 | 776.8
x2 = 0.129 | 777
x2 = 0.1754 | 777.2
x2 = 0.2486 | 777.6
x2 = 0.2872 | 777.9
x2 = 0.3419 | 778.4
x2 = 0.3978 | 778.9
x2 = 0.4563 | 779.5
x2 = 0.5001 | 780
x2 = 0.5577 | 780.6
x2 = 0.6025 | 781.1
x2 = 0.6433 | 781.6
x2 = 0.6925 | 782.2
x2 = 0.7416 | 782.7
x2 = 0.7823 | 783.2
x2 = 0.8218 | 783.6
x2 = 0.8737 | 784.2
x2 = 0.9146 | 784.6
x2 = 0.9565 | 784.9

CCC#N [propanenitrile] + CO
[3]
Conditions | mass density [kg/m3]
x2 = 0.0822 | 777.3
x2 = 0.1672 | 777.9
x2 = 0.2338 | 778.4
x2 = 0.2992 | 779
x2 = 0.3634 | 779.7
x2 = 0.4258 | 780.3
x2 = 0.4879 | 781
x2 = 0.5403 | 781.6
x2 = 0.5844 | 782.1
x2 = 0.6226 | 782.6
x2 = 0.6752 | 783.3
x2 = 0.7183 | 783.8
x2 = 0.763 | 784.4
x2 = 0.7996 | 784.8
x2 = 0.8366 | 785.3
x2 = 0.8743 | 785.8
x2 = 0.9088 | 786.1
x2 = 0.9384 | 786.3
x2 = 0.9696 | 786.5
